In publication PMC9636434, “Discovery of small molecule agonists of the Relaxin Family Peptide Receptor 2” (Communications Biology, 2022):
Values joined by “and” are separate entries in the source; they are usually repeats but may differ in a detail not shown here. Equal entries are not always repeated.

What was measured:
human RXFP1 = target: T1, human RXFP1 (Homo sapiens, UniProt Q9HBX9); assay: HTRF cAMP counter-screen in HEK293T cells expressing human RXFP1; assay type: cell-based; conditions: human RXFP1, positive control, experiments (1)-(3)
T1 construct: FLAG (N); expressed in transfected cells
T1 sequence (Q9HBX9 1-757): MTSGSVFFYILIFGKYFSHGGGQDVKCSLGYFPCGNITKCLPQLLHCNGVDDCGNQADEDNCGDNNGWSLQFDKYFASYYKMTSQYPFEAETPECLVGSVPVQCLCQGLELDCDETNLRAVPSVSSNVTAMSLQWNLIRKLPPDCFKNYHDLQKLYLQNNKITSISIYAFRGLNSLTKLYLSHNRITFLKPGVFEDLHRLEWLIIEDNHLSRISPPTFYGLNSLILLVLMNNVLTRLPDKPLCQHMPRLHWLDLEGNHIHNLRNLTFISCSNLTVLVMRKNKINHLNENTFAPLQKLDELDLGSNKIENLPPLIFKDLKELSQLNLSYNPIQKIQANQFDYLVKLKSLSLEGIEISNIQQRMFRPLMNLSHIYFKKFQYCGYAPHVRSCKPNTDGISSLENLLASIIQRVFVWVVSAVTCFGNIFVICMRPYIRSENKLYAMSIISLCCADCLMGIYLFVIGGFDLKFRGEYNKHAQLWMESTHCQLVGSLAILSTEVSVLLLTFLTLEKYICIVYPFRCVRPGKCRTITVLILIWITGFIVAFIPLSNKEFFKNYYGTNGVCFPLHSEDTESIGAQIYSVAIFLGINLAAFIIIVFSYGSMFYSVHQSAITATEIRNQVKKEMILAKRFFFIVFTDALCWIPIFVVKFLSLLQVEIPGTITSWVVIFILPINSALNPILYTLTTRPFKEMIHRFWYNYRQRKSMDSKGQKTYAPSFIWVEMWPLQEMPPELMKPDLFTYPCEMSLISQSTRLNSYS
Method: (§1) The HTRF Gs dynamic cAMP assay kit (CisBio, Bedford, MA) was used to measure intracellular cAMP accumulation in HEK293T cells (ATCC, Manassas, VA)[56]. […] The cell stock was verified mycoplasma free and authenticated by ATCC. Transient transfection was accomplished by treating cells in a 6-well plate with a mixture of 2 μg plasmid and 6 μL Lipofectamine 2000 (Invitrogen, Waltham, MA) per manufacturer’s protocol and incubating overnight. For cAMP measurement in 96-well format, HEK293T cells stably transfected with human RXFP2 (HEK-RXFP2), human RXFP1 (HEK-RXFP1), mouse Rxfp1 (HEK-Rxfp1) or transiently transfected with human RXFP1-RXFP2 chimeric receptors were seeded between 7500 and 30,000 cells per well, depending on cell line responsiveness, in serum-free DMEM medium and incubated overnight at 37 °C, 5% CO2. After 18 h, cells were treated with a titration of compound, 2 μM forskolin, or DMSO vehicle. Control wells were also treated with a titration of INSL3 (Phoenix Pharmaceuticals, Burlingame, CA) or human recombinant relaxin 2 (Peprotech, Cranbury, NJ). For the RXFP2 antagonist experiment, cells were co-treated with 0.28 μM compound or 30 nM INSL3 and a titration of the INSL3 B dimer antagonist[38],[39]. For the INSL3 allosteric modulation experiment, cells were co-treated with 0.025, 0.0025, or 0.00025 μM of compound and a titration of INSL3. Cells were incubated for 1 h at 37 °C, 5% CO2, and then kit cAMP-d2 and anti-cAMP antibody were added per manufacturer protocol. Plates were incubated for 1 h at room temperature and the signal was read on a CLARIOstar plate reader (BMG Labtech, Ortenberg, Germany) at 665 and 620 nm emission wavelengths. […]
(§2) receptors. HTRF cAMP counter-screen of RXFP2 agonists in HEK293T cells expressing a human RXFP1 and b mouse RXFP1. Relaxin 2 was used as positive control for RXFP1 receptor activation. Results are expressed as mean ± SEM of 3

mouse RXFP1 = target: T2, mouse RXFP1 (Mus musculus, UniProt Q6R6I7); assay: HTRF cAMP counter-screen in HEK293T cells expressing mouse RXFP1; assay type: cell-based; conditions: mouse RXFP1, positive control, experiments (1)-(3)
T2 construct: FLAG (N); expressed in transfected cells
T2 sequence (Q6R6I7 1-758): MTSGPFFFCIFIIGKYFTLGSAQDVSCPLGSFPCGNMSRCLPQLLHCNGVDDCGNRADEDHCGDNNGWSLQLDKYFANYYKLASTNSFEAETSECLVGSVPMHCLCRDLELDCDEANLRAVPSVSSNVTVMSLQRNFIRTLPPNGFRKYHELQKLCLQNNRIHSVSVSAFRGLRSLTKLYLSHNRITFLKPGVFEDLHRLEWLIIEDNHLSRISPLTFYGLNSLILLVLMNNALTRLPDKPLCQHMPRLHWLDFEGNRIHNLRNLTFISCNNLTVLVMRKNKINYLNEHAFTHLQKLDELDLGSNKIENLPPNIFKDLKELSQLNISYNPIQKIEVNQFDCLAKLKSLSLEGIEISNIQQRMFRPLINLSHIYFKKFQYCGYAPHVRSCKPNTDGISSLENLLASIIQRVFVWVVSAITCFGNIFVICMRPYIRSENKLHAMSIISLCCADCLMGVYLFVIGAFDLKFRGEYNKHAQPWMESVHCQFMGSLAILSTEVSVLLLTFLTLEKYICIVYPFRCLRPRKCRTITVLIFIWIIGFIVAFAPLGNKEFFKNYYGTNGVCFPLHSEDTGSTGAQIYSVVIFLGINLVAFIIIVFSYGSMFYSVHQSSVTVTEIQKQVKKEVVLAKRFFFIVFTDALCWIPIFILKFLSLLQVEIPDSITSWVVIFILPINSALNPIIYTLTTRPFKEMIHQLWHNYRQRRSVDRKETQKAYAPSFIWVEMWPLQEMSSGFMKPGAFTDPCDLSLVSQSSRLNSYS
Method: as §1, §2

[1] = target: chimera RXFP2-1 (extracellular domain of RXFP2, transmembrane domain of RXFP1) (human); parameters: EC50 of the cAMP response (HTRF cAMP assay, transiently transfected HEK293T cells): unit not given beside the values

% Eff (cAMP) (human RXFP1; Log [M] -7)	% Eff (cAMP) (human RXFP1; Log [M] -8)	% Eff (cAMP) (human RXFP1; Log [M] -9)	% Eff (cAMP) (human RXFP1; Log [M] -11)	% Eff (cAMP) (mouse RXFP1; Log [M] -7)	% Eff (cAMP) (mouse RXFP1; Log [M] -8)	% Eff (cAMP) (mouse RXFP1; Log [M] -9)	% Eff (cAMP) (mouse RXFP1; Log [M] -10)	% Eff (cAMP) (mouse RXFP1; Log [M] -11)	EC50 of the cAMP response (HTRF cAMP assay, transiently transfected HEK293T cells) [1]	Emax of the cAMP response (HTRF cAMP assay, transiently transfected HEK293T cells; normalized to 2 µM FSK as 100% efficacy) [1]	Substance
514.186% and 485.16% and 431.341%	600.088% and 494.195% and 523.956%	370.096% and 250.531% and 374.784%	-0.2294% and 1.737% and 3.775%	488.966% and 468.543% and 521.705%	318.502% and 312.701% and 407.269%	105.124% and 102.88% and 64.6466%	7.396% and 8.915% and 6.254%	0.7539% and 1.08% and 0.2993%			Relaxin
									0.74	92.3	insulin-like factor 3 peptide (INSL3) (ligand)
